Results taken from ChEMBL document CHEMBL4177622, “Enhanced radical scavenging activity of a procyanidin B3 analogue comprised of a dimer of planar catechin” (Bioorg Med Chem Lett, 2017).

Assay: Antioxidant activity assessed as second order rate constant for galvinoxyl radical scavenging activity in presence of deaerated conditions by UV-Vis spectrophotometric analysis
Format: functional

SMILES	K
Oc1cc(O)c2c(c1)O[C@H](c1ccc(O)c(O)c1)[C@@H](O)[C@@H]2c1c(O)cc(O)c2c1O[C@H](c1ccc(O)c(O)c1)[C@@H](O)C2	1 ×10² /mol/s
CC1(C)O[C@H]2Cc3c(O)cc(O)cc3O[C@@H]2c2cc(O)c(O)cc21	1.5 ×10² /mol/s
Oc1cc(O)c2c(c1)O[C@H](c1ccc(O)c(O)c1)[C@@H](O)C2	2.6 ×10¹ /mol/s
CC1(C)O[C@H]2Cc3c(O)cc(O)c([C@@H]4c5c(O)cc(O)cc5O[C@H](c5ccc(O)c(O)c5)[C@H]4O)c3O[C@@H]2c2cc(O)c(O)cc21	1.89 ×10² /mol/s
CC1(C)O[C@H]2[C@H](c3c(O)cc(O)c4c3O[C@@H]3c5cc(O)c(O)cc5C(C)(C)O[C@H]3C4)c3c(O)cc(O)cc3O[C@@H]2c2cc(O)c(O)cc21	2.85 ×10² /mol/s
